Data taken from the supplement of paper PMC8671470.

Key:
Details in all cases: 72 h
HL-60 [1] = system: HL-60
Procedure, shortened: (§1)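 Seeded in RPMI 1640 at densities within the linear growth range, fifteen myeloid leukaemia cell lines were dispensed into 384-well plates with acoustically pre-printed compounds spanning five tenfold doses from 1 to 10,000 nM, in duplicate. The plates were kept for 72 h at 37 °C in 5% CO2 before luminescent ATP viability was measured and normalised to vehicle and to a positive control at 10 µM. Curves were fitted with a four-parameter log-logistic model. The IC50 was taken from those curves.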

KCL-22 [2] = system: KCL-22
Procedure, shortened: as §1

KG-1 [3] = system: KG-1
Procedure, shortened: as §1

ML-2 [4] = system: ML-2
Procedure, shortened: as §1

NOMO-1 [5] = system: NOMO-1
Procedure, shortened: as §1

HL-60 [6] = experiment: cell viability (% survival relative to DMSO control); higher = less cytotoxic
Procedure, shortened: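 Area under the curve, where listed, was derived from four-parameter log-logistic fits with drc and PharmacoGx. These fits used CellTiter-Glo viability from HL-60 cells in RPMI 1640 with 10% FBS, normalised to DMSO wells and wells holding 10 μM proteasome inhibitor. The full library was rescreened on 384-well plates in duplicate at five tenfold concentrations, 1–10,000 nM, with DMSO or 100 nM of one of three metabolic inhibitors, for 72 h at 37 °C, 5% CO2.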

BV-173 = experiment: cell viability (% survival relative to DMSO control, bortezomib = 0%); higher = less cytotoxic
Procedure, shortened: (§2)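 Percent survival is reported as the mean of duplicate wells. Cells from 10 AML and 5 CML lines were plated in 384-well plates containing compounds at 1, 10, 100, 1000 or 10000 nM and kept for 72 h at 37 °C in 5% CO2. Readout used CellTiter-Glo luminescence, scaled so that vehicle equals 100% and a 10 µM positive control equals 0%.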

HEL = experiment: as above
Procedure, shortened: as §2

HL-60 [7] = experiment: as above
Procedure, shortened: as §2

K-562 = experiment: as above
Procedure, shortened: as §2

KCL-22 [8] = experiment: as above
Procedure, shortened: as §2

KG-1 [9] = experiment: as above
Procedure, shortened: as §2

KU-812 = experiment: as above
Procedure, shortened: as §2

LAMA-84 = experiment: as above
Procedure, shortened: as §2

ML-2 [10] = experiment: as above
Procedure, shortened: as §2

MOLM-13 = experiment: as above
Procedure, shortened: as §2

MV4-11 = experiment: as above
Procedure, shortened: as §2

Mono-Mac-6 = experiment: as above
Procedure, shortened: as §2

NOMO-1 [11] = experiment: as above
Procedure, shortened: as §2

SHI-1 = experiment: as above
Procedure, shortened: as §2

THP-1 = experiment: as above
Procedure, shortened: as §2

Cc1cccc(Nc2cc(Cl)nc(SCC(=O)O)n2)c1C [Pirinixic acid]
Details | IC50 (cell viability) [µM]
HL-60 [1] | > 10
KCL-22 [2] | > 10
KG-1 [3] | > 10
ML-2 [4] | > 10
NOMO-1 [5] | > 10

cell viability [%], HL-60 [6]
Details | 0.001 µM | 0.01 µM | 0.1 µM | 1 µM | 10 µM
co-treatment: AZD3965 100 nM | 98.81 | 99 | 96.2 | 99.2 | 98.02
co-treatment: DMSO vehicle | 97.46 | 94.5 | 96.3 | 100.4 | 96.4
co-treatment: GSK2194069 100 nM | 70.6 | 89.6 | 94.6 | 99.1 | 77.3
co-treatment: pictilisib 100 nM | 96.5 | 80.8 | 91.1 | 102 | 96.7

cell viability [%]
Details | 1 nM | 10 nM | 100 nM | 1000 nM | 10000 nM
BV-173 | 106 | 90.6 | 104 | 92.1 | 93.5
HEL | 84 | 100 | 109 | 104 | 101
HL-60 [7] | 97.2 | 101 | 116 | 93.8 | 98.2
K-562 | 99.8 | 92.3 | 102 | 94.5 | 90.7
KCL-22 [8] | 86.5 | 92.5 | 100 | 106 | 101
KG-1 [9] | 99 | 93.1 | 101 | 98.8 | 107
KU-812 | 97.2 | 97.6 | 102 | 96.4 | 97.3
LAMA-84 | 100 | 97.7 | 99 | 94.5 | 95
ML-2 [10] | 103 | 103 | 105 | 105 | 102
MOLM-13 | 106 | 102 | 87.1 | 111 | 84.6
MV4-11 | 94.5 | 90.7 | 102 | 99.3 | 99.8
Mono-Mac-6 | 105 | 106 | 98.4 | 99.2 | 91.4
NOMO-1 [11] | 106 | 102 | 102 | 90.5 | 96.8
SHI-1 | 98.5 | 97 | 91.8 | 94.4 | 82.8
THP-1 | 105 | 97.1 | 101 | 99.5 | 102

O=C(NCCN1CCC(n2c(O)nc3ccccc32)CC1)c1cc2cc(F)ccc2[nH]1 [FIPI]
Details | IC50 (cell viability) [µM]
HL-60 [1] | > 10
KCL-22 [2] | > 10
KG-1 [3] | > 10
ML-2 [4] | > 10
NOMO-1 [5] | > 10

cell viability [%], HL-60 [6]
Details | 0.001 µM | 0.01 µM | 0.1 µM | 1 µM | 10 µM
co-treatment: AZD3965 100 nM | 104 | 99.7 | 103 | 102 | 107
co-treatment: DMSO vehicle | 101.7 | 100.3 | 104 | 108 | 107
co-treatment: GSK2194069 100 nM | 98.6 | 99.3 | 102 | 106 | 91.2
co-treatment: pictilisib 100 nM | 106 | 105.7 | 110 | 110 | 95.5

cell viability [%]
Details | 1 nM | 10 nM | 100 nM | 1000 nM | 10000 nM
BV-173 | 96.9 | 101 | 99.9 | 99.3 | 58.9
HEL | 99.1 | 99.8 | 101 | 104 | 82.5
HL-60 [7] | 105 | 103 | 112 | 97.7 | 92.2
K-562 | 99.1 | 106 | 108 | 101 | 27.3
KCL-22 [8] | 100 | 98 | 91.1 | 94.9 | 67.7
KG-1 [9] | 101 | 92.4 | 103 | 91.2 | 65.1
KU-812 | 104 | 92.9 | 105 | 106 | 66.2
LAMA-84 | 99.3 | 103 | 103 | 98.6 | 70.5
ML-2 [10] | 96.3 | 98.6 | 107 | 110 | 75.8
MOLM-13 | 79.6 | 104 | 98.9 | 95.4 | 69
MV4-11 | 91.3 | 88.1 | 100 | 94.6 | 53.2
Mono-Mac-6 | 104 | 107 | 106 | 70.6 | 64.5
NOMO-1 [11] | 96.7 | 95.4 | 110 | 102 | 95.3
SHI-1 | 103 | 104 | 97.5 | 97.9 | 85
THP-1 | 95.8 | 93.9 | 101 | 105 | 96.3

Cc1ccc(-c2cc(C(F)(F)F)nn2-c2ccc(S(N)(=O)=O)cc2)cc1 [Celecoxib]
Details | IC50 (cell viability) [µM]
HL-60 [1] | > 10
KCL-22 [2] | > 10
KG-1 [3] | > 10
ML-2 [4] | > 10
NOMO-1 [5] | > 10

cell viability [%], HL-60 [6]
Details | 0.001 µM | 0.01 µM | 0.1 µM | 1 µM | 10 µM
co-treatment: AZD3965 100 nM | 104 | 99.7 | 101 | 106 | 114.8
co-treatment: DMSO vehicle | 103 | 90.4 | 100 | 105 | 110.57
co-treatment: GSK2194069 100 nM | 101 | 87.7 | 97.67 | 103 | 104
co-treatment: pictilisib 100 nM | 102 | 98.6 | 96.2 | 122 | 125

cell viability [%]
Details | 1 nM | 10 nM | 100 nM | 1000 nM | 10000 nM
BV-173 | 104 | 93.2 | 86.4 | 84.9 | 83.2
HEL | 96.1 | 104 | 89.9 | 99.5 | 97.1
HL-60 [7] | 99.2 | 103 | 84.5 | 188 | 124
K-562 | 96.3 | 86.6 | 85.6 | 95.4 | 78.4
KCL-22 [8] | 101 | 76.4 | 90.7 | 76.9 | 80
KG-1 [9] | 96.8 | 102 | 97.4 | 110 | 93.8
KU-812 | 92.4 | 91.9 | 95.6 | 90.6 | 62.8
LAMA-84 | 98.6 | 106 | 94 | 93.7 | 79.6
ML-2 [10] | 93.5 | 99.2 | 105 | 87.4 | 76.8
MOLM-13 | 81.3 | 85.7 | 85.4 | 139 | 92.5
MV4-11 | 97.5 | 96.4 | 83.7 | 110 | 79.4
Mono-Mac-6 | 104 | 101 | 105 | 104 | 75.3
NOMO-1 [11] | 101 | 109 | 94.8 | 99.4 | 95.5
SHI-1 | 118 | 104 | 95.6 | 112 | 94.2
THP-1 | 105 | 102 | 105 | 95.5 | 84.7
